Assay: xn = mol fraction of the nth substance listed, in the solute-free solvent

Cc1ncc(C[n+]2csc(CCO)c2C)c(N)n1.O=[N+]([O-])[O-] + O + CC(C)=O
solubility (g/100 g solution)
Conditions | 278.15 K | 283.15 K | 288.15 K | 293.15 K | 298.15 K | 303.15 K | 308.15 K | 313.15 K
x2 = 0.3 | 0.0632 | 0.0724 | 0.0831 | 0.0951 | 0.118 | 0.138 | 0.161 | 0.193
x2 = 0.4 | 0.169 | 0.198 | 0.227 | 0.252 | 0.298 | 0.344 | 0.393 | 0.437
x2 = 0.5 | 0.394 | 0.441 | 0.498 | 0.556 | 0.639 | 0.733 | 0.842 | 0.951
x2 = 0.6 | 0.648 | 0.746 | 0.87 | 0.996 | 1.16 | 1.37 | 1.64 | 2
x2 = 0.7 | 1.08 | 1.24 | 1.45 | 1.69 | 1.98 | 2.3 | 2.69 | 3.23
x2 = 0.8 | 1.55 | 1.8 | 2.14 | 2.53 | 2.97 | 3.56 | 4.14 | 4.86
x2 = 0.9 | 1.85 | 2.17 | 2.54 | 3.11 | 3.62 | 4.28 | 5 | 5.96

CC(=O)N1CCN(c2ccc(OCC3COC(Cn4ccnc4)(c4ccc(Cl)cc4Cl)O3)cc2)CC1 (stereo unspecified) + CC#N + O
solubility (g/100 g solution)
Conditions | x2 = 0.04651 | x2 = 0.0989 | x2 = 0.1583 | x2 = 0.2264 | x2 = 0.3051 | x2 = 0.397 | x2 = 0.506 | x2 = 0.6372 | x2 = 0.798
293.15 K | 0.0181 | 0.108 | 0.587 | 2.22 | 5.12 | 9.21 | 11.9 | 10 | 4.67
298.15 K | 0.0214 | 0.122 | 0.681 | 2.63 | 6.07 | 10.5 | 13 | 11.2 | 5.65
303.15 K | 0.024 | 0.137 | 0.794 | 2.95 | 6.89 | 11.7 | 14.2 | 12.5 | 6.84
308.15 K | 0.0263 | 0.157 | 0.888 | 3.36 | 7.88 | 12.9 | 15.4 | 13.6 | 7.71
313.15 K | 0.0283 | 0.177 | 0.992 | 3.72 | 8.81 | 13.8 | 16.5 | 14.9 | 8.58

Nc1[nH]c(=O)ncc1F + CS(C)=O + CC(C)O
solubility (g/100 g solution)
Conditions | 283.15 K | 288.15 K | 293.15 K | 298.15 K | 303.15 K | 308.15 K | 313.15 K | 318.15 K | 323.15 K
x2 = 0.0788 | 0.0921 | 0.111 | 0.133 | 0.162 | 0.192 | 0.228 | 0.268 | 0.315 | 0.37
x2 = 0.1614 | 0.168 | 0.202 | 0.237 | 0.282 | 0.331 | 0.386 | 0.451 | 0.526 | 0.615
x2 = 0.2481 | 0.248 | 0.291 | 0.341 | 0.401 | 0.466 | 0.543 | 0.625 | 0.717 | 0.826
x2 = 0.3392 | 0.336 | 0.388 | 0.451 | 0.521 | 0.606 | 0.693 | 0.798 | 0.914 | 1.05
x2 = 0.435 | 0.424 | 0.487 | 0.569 | 0.648 | 0.743 | 0.852 | 0.967 | 1.1 | 1.25
x2 = 0.5359 | 0.503 | 0.57 | 0.645 | 0.734 | 0.837 | 0.957 | 1.09 | 1.24 | 1.41
x2 = 0.6424 | 0.591 | 0.662 | 0.745 | 0.833 | 0.948 | 1.08 | 1.21 | 1.38 | 1.55
x2 = 0.7549 | 0.704 | 0.789 | 0.876 | 0.987 | 1.11 | 1.25 | 1.41 | 1.59 | 1.77
x2 = 0.8739 | 0.823 | 0.901 | 1 | 1.11 | 1.24 | 1.4 | 1.57 | 1.75 | 1.95

CN1CCN(C2=Nc3cc(Cl)ccc3Nc3ccccc32)CC1 + CC(C)O + O
solubility (g/100 g solution)
Conditions | x2 = 0.03225 | x2 = 0.06974 | x2 = 0.1139 | x2 = 0.1666 | x2 = 0.2307 | x2 = 0.3103 | x2 = 0.4117 | x2 = 0.5454 | x2 = 0.7297
278.15 K | 0.00624 | 0.0228 | 0.0624 | 0.135 | 0.239 | 0.393 | 0.559 | 0.783 | 0.957
283.15 K | 0.00829 | 0.029 | 0.0775 | 0.164 | 0.288 | 0.463 | 0.667 | 0.914 | 1.13
288.15 K | 0.0108 | 0.0371 | 0.096 | 0.199 | 0.35 | 0.567 | 0.781 | 1.08 | 1.32
293.15 K | 0.014 | 0.0473 | 0.117 | 0.237 | 0.417 | 0.659 | 0.933 | 1.27 | 1.54
298.15 K | 0.0182 | 0.06 | 0.144 | 0.283 | 0.493 | 0.781 | 1.09 | 1.47 | 1.78
303.15 K | 0.0233 | 0.0733 | 0.171 | 0.336 | 0.578 | 0.917 | 1.25 | 1.72 | 2.07
308.15 K | 0.0298 | 0.0919 | 0.207 | 0.399 | 0.675 | 1.06 | 1.47 | 1.96 | 2.37
313.15 K | 0.0368 | 0.113 | 0.249 | 0.472 | 0.803 | 1.22 | 1.69 | 2.24 | 2.68
318.15 K | 0.0461 | 0.137 | 0.295 | 0.552 | 0.923 | 1.42 | 1.95 | 2.58 | 3.06
323.15 K | 0.0576 | 0.166 | 0.344 | 0.642 | 1.07 | 1.63 | 2.21 | 2.92 | 3.45
328.15 K | 0.071 | 0.203 | 0.407 | 0.739 | 1.23 | 1.85 | 2.53 | 3.33 | 3.91
